The text below walks through data of patent publication US20240199525A1, “SHP2-Targeting Small Molecules For Use As Anti-Cancer Agents” (West Virginia University Board of Governors on behalf of …, priority 2022, published 2024).

For experiment [1], the target named is T1, purified PTP domain of SHP2 (Homo sapiens (Human), UniProt Q06124). The experiment in a line: PTPase assay with DiFMUP, SHP2. It is filed as biochemical. The note with it: for IC50: 1 nM enzyme, 20 μM DiFMUP, 37° C., 20 min; for fold difference: SHP2 IC50 relative to CNBCA.
Experiment [2] addresses T2, purified PTP domain of SHP1 (Homo sapiens (Human), UniProt P29350). The experiment is described as follows: PTPase assay with DiFMUP, SHP1. It is filed as biochemical.
Experiment [3] deals with purified PTP domain of PTP1B (Homo sapiens (Human), UniProt P18031). The experiment is described as follows: PTPase assay with DiFMUP, PTP1B. It is filed as biochemical.
The target in the next experiment is SHP2 (Homo sapiens (Human), UniProt Q06124). The experiment is described as follows: Enzyme kinetic studies with DiFMUP (Michaelis-Menten, Lineweaver-Burk). The note with it: for Km: 36.05 in its absence. It is filed as biochemical.
In another experiment the target is PTP1B (Homo sapiens (Human), UniProt P18031). The experiment in a line: CETSA with CNBCA, nontarget PTP1B in breast cancer cell lysates. It is filed as binding. The note with it: 100 μM CNBCA.
Another experiment deals with FL-SHP2 (Homo sapiens (Human), UniProt Q06124). The experiment is described as follows: PTPase assay on FLAG-tagged FL-SHP2 immunoprecipitated from MDA-MB468 cells. It is filed as biochemical. As to conditions: 20 μM DiFMUP.
The subject of experiment [4] is Akt and ERK1/2 activation in BT474 and MDA-MB468 cells. The experiment in a line: Immunoblotting for basal pERK1/2 and pAkt, CNBCA. It is filed as cell-based. As to conditions: 48 h. A general note: A western blot detects proteins with antibodies after separation by electrophoresis.
The subject of experiment [5] is BT474 and MDA-MB468 cells. The experiment in a line: Cell growth in 2D culture, CNBCA. It is filed as cell-based. The note with it: 500 nM, 72 h.
Experiment [6] concerns BT474 and MDA-MB468 cells. The experiment is described as follows: Colony formation in soft agar, CNBCA. As to conditions: 500 nM, 10 days. It is filed as cell-based.
In experiment [7] the test system is BT474 and MDA-MB468 cells. The experiment is described as follows: Mammosphere formation in suspension culture, CNBCA. It is filed as cell-based. As to conditions: 500 nM, 10 days.
Experiment [8] concerns the target T1, purified PTP domain of SHP2. As to conditions: previously reported value; read-out: IC50 SHP2 PTPase activity, parent compound; cited from earlier work.
Experiment [9] has as its target T2, purified PTP domain of SHP1. As to conditions: previously reported; cited from earlier work.

Read-outs that look alike come from different tables or passages of the source.

PTP1B, sequence (P18031 whole entry): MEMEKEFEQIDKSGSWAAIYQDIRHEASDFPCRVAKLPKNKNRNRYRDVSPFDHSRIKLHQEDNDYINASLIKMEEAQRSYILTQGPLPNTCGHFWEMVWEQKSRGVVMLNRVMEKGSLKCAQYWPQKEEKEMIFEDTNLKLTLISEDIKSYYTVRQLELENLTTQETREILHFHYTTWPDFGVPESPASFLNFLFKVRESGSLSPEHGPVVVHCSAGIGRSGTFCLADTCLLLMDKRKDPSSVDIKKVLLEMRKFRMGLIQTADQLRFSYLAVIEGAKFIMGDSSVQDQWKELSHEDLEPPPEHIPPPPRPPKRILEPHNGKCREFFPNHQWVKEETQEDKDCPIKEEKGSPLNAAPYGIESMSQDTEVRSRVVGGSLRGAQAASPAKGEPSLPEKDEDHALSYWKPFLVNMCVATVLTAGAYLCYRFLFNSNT
T2 sequence (P29350 244-515): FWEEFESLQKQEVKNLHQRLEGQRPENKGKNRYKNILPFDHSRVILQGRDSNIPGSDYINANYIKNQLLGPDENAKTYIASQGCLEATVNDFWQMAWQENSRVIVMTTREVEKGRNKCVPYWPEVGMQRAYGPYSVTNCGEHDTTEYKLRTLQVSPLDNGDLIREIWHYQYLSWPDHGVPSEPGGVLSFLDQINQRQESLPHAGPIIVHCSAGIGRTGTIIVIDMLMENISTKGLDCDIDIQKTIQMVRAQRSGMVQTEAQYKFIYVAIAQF
purified PTP domain of PTP1B, sequence (P18031 3-277): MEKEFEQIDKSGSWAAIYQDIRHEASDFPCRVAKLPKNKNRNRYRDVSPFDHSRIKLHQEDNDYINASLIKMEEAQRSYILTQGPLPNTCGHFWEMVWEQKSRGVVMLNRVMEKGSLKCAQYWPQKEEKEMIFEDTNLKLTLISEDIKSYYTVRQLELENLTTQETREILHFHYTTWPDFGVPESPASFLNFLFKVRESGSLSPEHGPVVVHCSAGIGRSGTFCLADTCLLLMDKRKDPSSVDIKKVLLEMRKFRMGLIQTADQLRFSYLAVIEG

On to `CCCCCCCCCOc1ccc(-c2ccc(CC(=O)O)cc2)cc1CCCC(=O)O` [CNBBA, 4-(4′-(Carboxymethyl)-4-(nonyloxy)-[1,1′-biphenyl]-3-yl) Butanoic Acid], for which, in experiment [1], the IC50 stood at 5.1 µM and the fold difference came to 5.8.

As usually defined, the Km is the concentration of substrate that gives half-maximal velocity. With `CCCCCCCCCOc1ccc(-c2ccc(C(=O)O)cc2)cc1CCCC(=O)O` [CNBCA, 3′-(3-Carboxypropyl)-4′-(nonyloxy)-[1,1′-biphenyl]-4-carboxylic Acid], in experiment [1], the “better SHP2 IC50 than CNBBA” value stood at 5.8 fold. Also, the “better SHP2 IC50 than the parent compound CNBDA” value in experiment [1] was 5.7 fold. The IC50 is 0.87 µM in [1]; 34.6 µM in experiment [2] (35 μM DiFMUP); 25 µM in experiment [3] (10 μM DiFMUP); 0.615 µM at FL-SHP2; about 1 µM in experiment [4] (BT474 and MDA-MB468 cells, band density, read-out: approximate IC50, SHP2 mediated Akt and ERK1/2 activation). Moreover, the “Selectivity ratio, SHP2” value in [1] (SHP2 IC50 as reference) worked out at 1.0. In experiment [1], the fold difference amounted to 1.0. In addition, the “more selective for SHP2 than for SHP1” value in experiment [2] (from IC50 values) is recorded as 39.77 fold. In addition, the “Selectivity ratio, PTP1B” value in experiment [3] (PTP1B IC50 over SHP2 IC50) turned out to be 28.73. For the same compound, at SHP2, the mechanism of inhibition entry was “competitive inhibitor”. Moreover, the Km turned out to be 125 µM at SHP2 (in the presence of 1.0 μM CNBCA) and 291 µM on SHP2 (in the presence of 2.0 μM CNBCA). The “nontarget PTP1B remaining in solution, band density” value on PTP1B (49° C.) is on record as “approximately 50%”; at PTP1B (55° C.), 25%; at PTP1B (58° C.), “less than 10%”. Moreover, the “basal pERK1/2 and pAkt levels” value in [4] (0.250 to 2.0 μM) was “downregulation of basal pERK1/2 and pAkt levels by CNBCA treatment in a concentration dependent manner”. The “cell growth in 2D culture” value in experiment [5] is “still half-confluent”. The “colony formation in soft agar” value in [6] was “fewer and smaller colonies”. In addition, the mammosphere formation entry in experiment [7] is “fewer and smaller mammospheres”.

With `CCCCCCCCCOc1c(CCCC(=O)O)cc(-c2ccc(C(=O)O)cc2)cc1CCCC(=O)O` [CNBDA], in experiment [1], the fold difference is given as 5.7. Further, the IC50 in experiment [8] is 5 µM. Also, the “selective to SHP2 than to SHP1, parent compound” value in experiment [9] is “approximately 25 fold”.
